Measurements reported in patent publication US7951374B2, “Methods for inhibiting STAT3 signaling in immune cells” (University of South Florida, priority 2004, dated 2011).

Assays:
MB49 tumor cells = test: CPA-7-induced tumor-cell apoptosis in vitro by annexin V staining; type: cell-based, mouse; settings: annexin V staining (FIG. 31)
Description: Cell lines. Mouse B16 melanoma, YAC-1 and P815 target cells were purchased from American Type Culture Collection. MB49 bladder carcinoma and C4 mouse melanoma lines were gifts from T. Ratliff (University of Iowa) and J. Fidler (M.D. Anderson Cancer Center), respectively.
Flow cytometry. Single-cell suspensions were prepared by mechanic dispersion of spleen or tumor tissues. 1×10^6 freshly prepared cells suspended in a mixture of PBS, 2% FCS and 0.1% (wt/vol) sodium azide were preincubated with FcγIII/IIR-specific antibody to block nonspecific binding and cells were stained with different combinations of fluorochrome-coupled antibodies to CD11c, I-A^b (MHC class II), CD86, CD11b, Gr1, CD49b, CD3, CD25 or Lag-3, or with annexin V (BD Biosciences). Fluorescence data was collected on FACSCalibur (Beckton Dickinson) and analyzed using FlowJo software (Tree Star).
The effects of blocking Stat3 in immune cells with CPA-7, a small-molecule Stat3 inhibitor, were assessed. For these experiments, both B16 and MB49 tumor cells were used. In contrast to B16, MB49 tumor cells are insensitive to CPA-7-induced tumor-cell apoptosis, as determined by annexin V staining.

Stat3 = biological target: T1, Stat3 (Mus musculus, UniProt P42227); test: EMSA of Stat DNA binding in DC2.4 dendritic cells preincubated with CPA-7 (Stat3); type: cell-based; settings: DC2.4 cells, 10 μm CPA-7 overnight, then 20 ng/ml IL-6 for 20 minutes, EMSA (FIG. 32)
T1 construct: endogenous in cells; host or cells: mouse DC2.4 dendritic cells
T1 sequence (P42227 whole entry): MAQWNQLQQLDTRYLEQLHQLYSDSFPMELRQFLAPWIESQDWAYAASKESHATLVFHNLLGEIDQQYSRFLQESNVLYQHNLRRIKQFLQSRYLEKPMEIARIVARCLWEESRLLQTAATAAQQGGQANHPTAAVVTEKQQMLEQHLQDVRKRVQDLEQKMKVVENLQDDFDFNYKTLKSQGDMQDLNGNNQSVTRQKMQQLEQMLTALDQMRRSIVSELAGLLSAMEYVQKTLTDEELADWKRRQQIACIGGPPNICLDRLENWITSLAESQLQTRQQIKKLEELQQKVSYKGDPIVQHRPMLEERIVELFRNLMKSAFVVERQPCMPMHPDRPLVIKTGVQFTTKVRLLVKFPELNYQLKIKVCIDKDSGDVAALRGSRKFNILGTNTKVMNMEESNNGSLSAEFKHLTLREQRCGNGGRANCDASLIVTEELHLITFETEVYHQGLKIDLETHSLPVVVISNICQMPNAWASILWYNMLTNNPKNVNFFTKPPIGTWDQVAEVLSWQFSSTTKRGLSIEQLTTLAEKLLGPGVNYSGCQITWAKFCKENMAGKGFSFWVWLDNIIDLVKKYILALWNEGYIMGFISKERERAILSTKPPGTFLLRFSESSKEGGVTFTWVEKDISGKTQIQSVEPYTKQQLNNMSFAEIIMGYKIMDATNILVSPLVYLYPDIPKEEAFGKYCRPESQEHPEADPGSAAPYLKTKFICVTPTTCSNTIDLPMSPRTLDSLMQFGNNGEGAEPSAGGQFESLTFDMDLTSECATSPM
Description: Mouse DC2.4 dendritic cells were preincubated with 10 μm CPA-7 overnight and then stimulated for 20 minutes with 20 ng/ml IL-6 (activator of both Stat3 and Stat1), 500 U/ml IFN-γ (activator of […]) or 20 ng/ml GM-CSF (activator of Stat5). After cell lysis, nuclear extracts were prepared and EMSA was conducted to detect DNA binding.

Phospho-Stat3 (Stat3P) = biological target: T2, Phospho-Stat3 (Stat3P) (Mus musculus, UniProt P42227); test: Phospho-Stat3 levels in MB49 tumor-infiltrating DCs after intravenous CPA-7, intracellular flow cytometry; type: in vivo; settings: 24 hours after intravenous injection, compared to vehicle-treated mice (FIG. 33)
T2 construct: from tissue; host or cells: tumor-infiltrating dendritic cells from MB49 tumors of mice
T2 sequence (P42227 whole entry): as above
Description: (§1) Isolation of tumor-infiltrating immune cell subsets and intracellular staining of signaling molecules. Freshly excised tumor tissues were gently minced into small pieces and incubated in 400 U/ml of collagenase D (Roche) solution for 30 minutes at 37° C. Cell suspensions were filtered through a mesh filter for isolation of various immune cell subsets using specific antibodies in combination with EASYSEP magnetic nanoparticles (StemCell Technologies, Canada). Isolated tumor-infiltrating cells were fixed in paraformaldehyde and permeated in methanol before intracellular staining with antibodies to phosphotyrosine-Stat3 and Stat1 (BD Biosciences) or with Foxp3-specific antibody (eBiosciences). Fluorescence data was collected on FACSCalibur (Beckton Dickinson) and analyzed using FlowJo software (Tree Star).
(§2) To further characterize activation of CPA-7 treated immune cells, Phospho-Stat3 (Stat3P) levels in tumor-infiltrating DCs were assessed 24 hours after intravenous injection with vehicle or CPA-7 and compared to splenic CD11c^+ cells from tumor-free Stat3^+/+ mice. […] Also shown in FIG. 33, CPA-7 treated tumor-infiltrating DCs have increased phosphorylated Stat1.

phosphorylated Stat1 = test: Stat1P levels in tumor-infiltrating DCs after intravenous CPA-7, intracellular flow cytometry; type: in vivo, mouse; settings: 24 hours after intravenous injection (FIG. 33)
Description: as §1, §2

MB49 tumors = test: Growth of established MB49 tumors in mice treated with CPA-7; type: in vivo, mouse
Description: For CPA-7 treatment, MB49 tumors were implanted into male C57BL/6 mice and tumors were allowed to grow until 5-7 mm in diameter. Mice were given intravenous injections of either vehicle (10% DMSO/PBS) or 5 mg/kg CPA-7 once every 3 days.
Mice with MB49 tumors (about 6 mm in diameter) received intravenous injections of either vehicle or CPA-7.
Mice with established MB49 tumors were treated with vehicle or CPA-7 in combination with control or asialo GM1-specific antibody.

YAC-1 cells = test: 51Cr-release assay of NK cell cytotoxicity from tumor-bearing mice treated with CPA-7; type: in vivo, mouse; settings: NK cells from tumor-bearing mice treated with CPA-7, YAC-1 targets (FIG. 35)
Description: Cytotoxicity assays. NK cell and neutrophil cytotoxicity assays were performed as described by Wei, S. et al., J. Exp. Med. 187, 1753-1765 (1998), which is incorporated herein by reference. Briefly, a 4-hour ^51Cr-release assay was carried out using YAC-1 cells as targets for enriched NK cells or FcγR^+ mouse mastocytoma (P815) cells as targets for enriched neutrophils. Cytotoxicity of CPA-7-treated NK cells from tumor-bearing hosts was assessed using a standard ^51Cr-release assay with YAC-1 cells as targets, as described in Example 1.

[1] = tested on: MB49, B16 or C4 tumor cells; test: Lung tumor nodules after intravenous tumor cell injection and CPA-7 treatment; type: in vivo, mouse; settings: 5×10^4 MB49, B16 or C4 cells i.v., CPA-7 5 mg/kg twice weekly, day 21 (FIG. 38)
Description: Mice were injected intravenously with 5×10^4 MB49, B16 or C4 tumor cells, followed by twice weekly treatment with CPA-7 (5 mg/kg) or vehicle (10% DMSO). Lung colonies were enumerated 21 days later, when control mice became moribund.
To visualize lung tumor nodules, lungs were fixed and bleached in Fekete's solution with or without India ink as a counterstain.

[2] = Immunohistochemical analysis of colon sections for autoimmune pathology; type: in vivo, mouse; settings: tumor-bearing Stat3+/+ and Stat3−/− mice, CPA-7 every third day for three weeks (FIG. 30)
Description: Transverse colon sections were stained with hematoxylin-eosin and antibodies to CD4, CD8 or CD11b. Staining with rat IgG was used as a negative control.
Colons from tumor free Stat3^−/− mice were evaluated for autoimmune effects at 20 weeks after Stat3 deletion by immunohistochemical analysis. […] In contrast, there was virtually no evidence of systemic autoimmunity at 4 weeks after induced depletion in tumor-bearing Stat3^+/+ and Stat3^−/− mice (FIG. 29).

For `[NH2][Pt]([NH2])([Cl])([Cl])([Cl])[N+](=O)[O-]` [CPA-7], the “sensitivity to CPA-7-induced tumor-cell apoptosis” value (MB49 tumor cells) was “insensitive”, the “inhibition of Stat3 DNA binding” value (Stat3) was “inhibits Stat3” and the “phosphorylated Stat3 in tumor-infiltrating DCs” value (Phospho-Stat3 (Stat3P)) was “considerably reduced”. For the same molecule, the “phosphorylated Stat1 in tumor-infiltrating DCs” value (phosphorylated Stat1) was “increased”, the “growth of established tumors” value (MB49 tumors; MB49 tumors about 6 mm in diameter, intravenous CPA-7 5 mg/kg once every 3 days (FIG. 34)) was “inhibits the growth of established tumors” and the “CPA-7-induced tumor growth inhibition in the absence of CD4+ and CD8+ T cells” value (MB49 tumors; MB49 tumors, antibodies to CD4 and CD8 (FIG. 34)) was “abrogated”. For the same molecule, the “in vivo antitumor effects of CPA-7 treatment with NK depletion” value (MB49 tumors; established MB49 tumors, asialo GM1-specific antibody (FIG. 36)) was “partially abrogates”, the “NK cell activity (cytotoxicity)” value (YAC-1 cells) was “increased” and the lung tumor nodules [1] was “significantly reduced or completely abrogated”. The “pathologic changes in colons” value [2] was “lack of pathologic changes”.
